Laboratory results reported in patent publication US20090306062A1, “2,5-Disubstituted Piperidines” (priority 2006, published 2009).

Target: T1, renin (Homo sapiens, UniProt P00797)
T1 construct: This test measures the formation of angiotensin I in human plasma; from tissue; host or cells: human plasma
T1 sequence (P00797 67-406): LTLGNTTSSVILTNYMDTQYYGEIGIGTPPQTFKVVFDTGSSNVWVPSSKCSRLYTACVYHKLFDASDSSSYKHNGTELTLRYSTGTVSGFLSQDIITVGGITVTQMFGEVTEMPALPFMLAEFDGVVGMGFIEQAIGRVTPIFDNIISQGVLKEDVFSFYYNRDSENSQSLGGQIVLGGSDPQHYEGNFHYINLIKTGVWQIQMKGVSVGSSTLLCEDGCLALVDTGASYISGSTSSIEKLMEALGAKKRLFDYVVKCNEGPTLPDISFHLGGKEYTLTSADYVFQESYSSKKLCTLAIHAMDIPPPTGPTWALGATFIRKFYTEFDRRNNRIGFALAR
Assay: in vitro test according to Nussberger et al.: formation of angiotensin I in human plasma, radioimmunoassay
Format: biochemical
Conditions: range stated for the listed examples together, read-out: IC50, inhibition of the formation of angiotensin I
Description: One experimental method of detecting the action of renin inhibitors is by means of in vitro tests, in which the reduction of the formation of angiotensin I in different systems (human plasma, purified human renin together with synthetic or natural renin substrate) is measured. One in vitro test which is used is the one according to Nussberger et al. (1987) J. Cardiovascular Pharmacol., Vol. 9, p. 39-44 which follows. This test measures the formation of angiotensin I in human plasma. The amount of angiotensin I formed is determined in a subsequent radioimmunoassay. Which action inhibitors have on the formation of angiotensin I is tested in this system by the addition of different concentrations of these substances. The IC50 refers to that concentration of the particular inhibitor which reduces the formation of angiotensin I by 50%.

Row | Compound | IC50 [nM]
1 | COCCCOc1cc(CO[C@@H]2CC[C@@H](CC(C)(C)C(=O)NCC3CCOCC3)NC2)ccc1F [Example 42, 3-{(2S,5R)-5-[4-Fluoro-3-(3-methoxypropoxy)benzyloxy]piperidin-2-yl}-2,2-dimethyl-N-(tetrahydropyran-4-ylmethyl)propionamide] | 74 to 2800
2 | COCCCN1C(=O)[C@](C)(c2ccccc2)Oc2ccc(CO[C@@H]3CC[C@@H](CC(C)(C)C(=O)NCC4CCOCC4)NC3)cc21 [Example 52, (S)-3-{(2S,5R)-5-[(S)-4-(3-Methoxypropyl)-2-methyl-3-oxo-2-phenyl-3,4-dihydro-2H-benzo[1,4]oxazin-6-ylmethoxy]piperidin-2-yl}-2,2-dimethyl-N-(tetrahydropyran-4-ylmethyl)propionamide] | 74 to 2800

More lines, now with the values ahead:

Row | IC50 [nM] | Compound
3 | 74 to 2800 | COCCCN1CCOc2ccc(CO[C@@H]3CC[C@@H](CC(C)(C)C(=O)NCC4CC4)NC3)cc21 [Example 25, N-Cyclopropylmethyl-3-{(2S,5R)-5-[4-(3-methoxypropyl)-3,4-dihydro-2H-benzo[1,4]oxazin-6-ylmethoxy]piperidin-2-yl}-2,2-dimethylpropionamide]
4 | 74 to 2800 | COCCCN1CCOc2ccc(CO[C@@H]3CC[C@@H](CC(C)(C)C(=O)NCC(C)(C)C(N)=O)NC3)cc21 [Example 26, N-(2-Carbamoyl-2-methylpropyl)-3-{(2S,5R)-5-[4-(3-methoxypropyl)-3,4-dihydro-2H-benzo[1,4]oxazin-6-ylmethoxy]piperidin-2-yl}-2,2-dimethylpropionamide]
5 | 74 to 2800 | COCCCN1CCOc2ccc(CO[C@@H]3CC[C@@H](C[C@@H](NC(=O)CC4CCOCC4)C(C)C)NC3)cc21 [Example 89, N—((R(or S))-1-{(2S,5R)-5-[4-(3-Methoxypropyl)-3,4-dihydro-2H-benzo[1,4]oxazin-6-ylmethoxy]piperidin-2-ylmethyl}-2-methylpropyl)-2-(tetrahydropyran-4-yl)acetamide]
